Assay results: ChEMBL document CHEMBL1201862, “PubChem BioAssay data set” (2004)
Activity calls are given as the source filed them.

Columns and labels:
[1] = test system: HEK293; test: cells; format: functional, cell-based; conditions: Homo sapiens
[2] = biological target: T1, Nuclear receptor subfamily 0 group B member 1 (Homo sapiens, UniProt P51843); test: Luminescence-based cell-based high throughput dose response assay for inhibitors of the orphan nuclear receptor subfamily 0, group B, member 1 (DAX1; NR0B1). [Related pubchem assays (depositor defined):AID504766, AID504790]; format: functional
T1 sequence (P51843 whole entry): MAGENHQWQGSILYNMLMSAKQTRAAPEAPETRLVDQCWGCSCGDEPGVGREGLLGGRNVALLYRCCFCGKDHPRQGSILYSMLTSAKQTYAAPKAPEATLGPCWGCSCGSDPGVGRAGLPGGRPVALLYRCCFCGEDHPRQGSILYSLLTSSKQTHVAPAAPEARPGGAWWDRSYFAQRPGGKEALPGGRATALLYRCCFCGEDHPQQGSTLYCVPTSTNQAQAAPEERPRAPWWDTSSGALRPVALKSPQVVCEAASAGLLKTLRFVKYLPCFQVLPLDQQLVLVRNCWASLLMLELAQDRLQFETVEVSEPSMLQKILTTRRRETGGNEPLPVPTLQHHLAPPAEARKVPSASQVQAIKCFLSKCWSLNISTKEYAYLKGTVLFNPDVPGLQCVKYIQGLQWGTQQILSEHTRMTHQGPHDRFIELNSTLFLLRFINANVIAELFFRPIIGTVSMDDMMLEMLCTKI

[3] = biological target: UDP-galactopyranose mutase (Mycobacterium tuberculosis, UniProt P9WIQ1); test: Inhibitors of Mycobacterium tuberculosis UDP-galactopyranose mutase (UGM) enzyme Measured in Biochemical System Using Plate Reader - 2105-02_Inhibitor_Dose_CherryPick_Activity. [Related pubchem assays (depositor defined):AID504439]
[4] = biological target: Glucose-6-phosphate 1-dehydrogenase (Homo sapiens, UniProt P11413); test: inhibition of Homo sapiens G6PD, dose series – biochemical, fluorescence, selectivity assay for P. falciparum G6PD inhibitor project, dose response (AID 504792); format: functional
[5] = viability of uninfected HEp-2 cells – cell-based, HTS, cytotoxicity control for RSV inhibitor project, dose response (AID 2410); format: functional; conditions: human respiratory syncytial virus
[6] = Luminescence Cell-Based Dose Confirmation HTS to Identify Activators of 5'UTR Stem-Loop Driven Alpha-Synuclein mRNA Translation in H4 Neuroglioblastoma Cells. [Related pubchem assays: 1829 (Project Summary), 1814 (Primary HTS)]; format: functional
[7] = Luminescence Cell-Based Dose Response HTS to Identify Activators of Luciferase Translation or Activity in H4 […] Cells. [Related pubchem assays: 1829 (Project Summary), 1814 (Primary HTS)]; format: functional
[8] = test system: H4; test: Luminescence Cell-Based Dose Response HTS to Identify Activators of 5'UTR Stem-Loop Driven Prion Protein mRNA Translation in H4 Neuroglioblastoma Cells. [Related pubchem assays: 1829 (Project Summary), 1814 (Primary HTS)]; format: functional; conditions: Homo sapiens
[9] = microbe, parasite or virus in culture; format: functional; conditions: Mycobacterium tuberculosis
[10] = biological target: T2, Exodeoxyribonuclease V (Escherichia coli (strain K12), UniProt P04993+P07648+P08394); test: RecBCD inhibition via phage-restricted bacterial growth – absorbance, V66 E. coli, mutant T4 phage, counter-screen for AddAB inhibitor project, dose response (AID 492957); format: functional, cell-based, Escherichia coli str. K-12 substr. MG1655
T2 sequence (P04993 whole entry): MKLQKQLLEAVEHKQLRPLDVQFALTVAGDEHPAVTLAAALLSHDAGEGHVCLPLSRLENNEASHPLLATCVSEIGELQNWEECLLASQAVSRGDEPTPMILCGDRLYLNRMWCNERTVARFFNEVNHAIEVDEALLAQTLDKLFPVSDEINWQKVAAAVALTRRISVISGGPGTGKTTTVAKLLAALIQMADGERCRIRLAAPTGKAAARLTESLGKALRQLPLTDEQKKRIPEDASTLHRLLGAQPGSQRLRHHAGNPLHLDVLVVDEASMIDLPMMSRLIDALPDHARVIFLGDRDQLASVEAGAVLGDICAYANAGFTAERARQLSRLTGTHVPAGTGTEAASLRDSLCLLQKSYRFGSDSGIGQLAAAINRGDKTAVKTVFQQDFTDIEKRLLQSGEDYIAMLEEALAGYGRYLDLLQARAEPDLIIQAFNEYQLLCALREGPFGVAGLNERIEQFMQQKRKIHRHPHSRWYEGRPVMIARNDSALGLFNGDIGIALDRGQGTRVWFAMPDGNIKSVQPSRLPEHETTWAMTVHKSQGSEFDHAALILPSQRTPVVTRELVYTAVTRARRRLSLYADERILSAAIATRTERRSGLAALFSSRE
T2 sequence (P07648 whole entry): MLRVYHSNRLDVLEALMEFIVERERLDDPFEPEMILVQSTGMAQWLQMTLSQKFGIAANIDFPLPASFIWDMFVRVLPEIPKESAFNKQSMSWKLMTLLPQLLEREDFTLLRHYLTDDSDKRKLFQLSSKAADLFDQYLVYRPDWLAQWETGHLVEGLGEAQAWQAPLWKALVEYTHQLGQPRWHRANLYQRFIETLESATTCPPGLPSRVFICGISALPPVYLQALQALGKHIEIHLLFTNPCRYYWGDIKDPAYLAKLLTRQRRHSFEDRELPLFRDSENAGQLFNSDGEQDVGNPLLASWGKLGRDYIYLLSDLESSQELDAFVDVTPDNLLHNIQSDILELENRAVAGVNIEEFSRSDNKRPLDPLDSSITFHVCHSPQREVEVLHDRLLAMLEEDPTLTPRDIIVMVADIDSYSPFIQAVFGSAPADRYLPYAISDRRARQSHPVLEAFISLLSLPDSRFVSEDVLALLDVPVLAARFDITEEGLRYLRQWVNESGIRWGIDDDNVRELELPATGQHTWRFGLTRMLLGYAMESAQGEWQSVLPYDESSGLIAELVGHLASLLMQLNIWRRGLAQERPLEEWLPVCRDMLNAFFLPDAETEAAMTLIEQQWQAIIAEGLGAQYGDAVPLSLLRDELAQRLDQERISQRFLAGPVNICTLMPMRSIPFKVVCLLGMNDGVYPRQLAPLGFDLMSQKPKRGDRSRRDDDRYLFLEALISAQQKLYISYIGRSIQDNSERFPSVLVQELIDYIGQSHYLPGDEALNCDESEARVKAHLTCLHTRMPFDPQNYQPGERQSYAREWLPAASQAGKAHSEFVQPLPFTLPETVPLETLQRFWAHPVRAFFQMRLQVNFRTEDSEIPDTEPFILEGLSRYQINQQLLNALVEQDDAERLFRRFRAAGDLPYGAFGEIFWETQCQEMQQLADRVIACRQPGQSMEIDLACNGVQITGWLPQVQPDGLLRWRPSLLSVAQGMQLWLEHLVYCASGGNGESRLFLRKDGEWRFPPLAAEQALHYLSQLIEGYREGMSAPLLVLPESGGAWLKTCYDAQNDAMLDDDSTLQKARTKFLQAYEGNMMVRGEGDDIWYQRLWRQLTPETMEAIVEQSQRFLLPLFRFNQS
T2 sequence (P08394 whole entry): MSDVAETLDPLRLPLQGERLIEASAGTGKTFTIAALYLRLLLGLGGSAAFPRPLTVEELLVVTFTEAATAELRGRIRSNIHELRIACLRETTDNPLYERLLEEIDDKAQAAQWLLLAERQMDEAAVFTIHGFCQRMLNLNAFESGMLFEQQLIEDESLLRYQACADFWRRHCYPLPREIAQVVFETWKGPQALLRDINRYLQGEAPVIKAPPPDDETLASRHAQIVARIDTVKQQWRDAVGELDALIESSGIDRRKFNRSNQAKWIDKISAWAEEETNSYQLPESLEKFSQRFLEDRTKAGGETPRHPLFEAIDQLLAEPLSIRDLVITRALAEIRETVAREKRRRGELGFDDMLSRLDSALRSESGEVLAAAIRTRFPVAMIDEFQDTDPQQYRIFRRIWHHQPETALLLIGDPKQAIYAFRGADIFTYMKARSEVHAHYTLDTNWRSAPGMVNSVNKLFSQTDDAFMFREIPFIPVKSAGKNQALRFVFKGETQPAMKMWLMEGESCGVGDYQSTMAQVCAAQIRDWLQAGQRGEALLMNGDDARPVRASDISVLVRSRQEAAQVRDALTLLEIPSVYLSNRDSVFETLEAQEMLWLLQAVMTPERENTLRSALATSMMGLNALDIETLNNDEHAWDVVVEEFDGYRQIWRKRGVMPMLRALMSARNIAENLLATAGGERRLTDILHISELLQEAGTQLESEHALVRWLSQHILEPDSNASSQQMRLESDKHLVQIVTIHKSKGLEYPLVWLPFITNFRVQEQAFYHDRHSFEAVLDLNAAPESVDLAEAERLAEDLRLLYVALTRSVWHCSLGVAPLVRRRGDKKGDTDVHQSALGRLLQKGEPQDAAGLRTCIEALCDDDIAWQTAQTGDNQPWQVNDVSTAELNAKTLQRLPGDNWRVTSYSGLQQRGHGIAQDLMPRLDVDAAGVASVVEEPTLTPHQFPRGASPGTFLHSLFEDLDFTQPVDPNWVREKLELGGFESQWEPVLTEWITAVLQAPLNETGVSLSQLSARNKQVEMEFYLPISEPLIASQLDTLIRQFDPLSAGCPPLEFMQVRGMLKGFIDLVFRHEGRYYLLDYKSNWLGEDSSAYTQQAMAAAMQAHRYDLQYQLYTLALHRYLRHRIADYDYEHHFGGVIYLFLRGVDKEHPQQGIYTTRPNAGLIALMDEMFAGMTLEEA

[11] = Counterscreen for AddAB inhibitors: absorbance-based bacterial cell-based high throughput dose response assay for inhibitors of bacterial viability. [Related pubchem assays (depositor defined):AID435030, AID449728, AID449731, AID488942, AID488955, AID488956]; format: functional
[12] = biological target: Genome polyprotein (dengue virus type 2, UniProt P29990); test: flavivirus cap methylation enzyme inhibition – biochemical, confirmation dose response, primary screen (AID 588689); format: functional
[13] = biological target: Cytochrome P450 2C19 (Homo sapiens, UniProt P33261); test: Cytochrome panel assay with activity outcomes. Panel member name: p450-cyp2c19 Compounds with AC50 equal or less than 10 uM are considered active; format: functional; conditions: read-out: AC50
[14] = test system: CHO; test: CHO cell viability loss, potency – luminescence, cytotoxicity control for TLR9-MyD88 binding inhibitor project, dose response (AID 588339); format: functional, cell-based, hamster; conditions: Cricetulus griseus;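 note: CHO cells stably coexpressing TLR9 and MyD88 fusions from primary screen; compound exposure lasted 48 hours before viability readout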
[15] = biological target: Beta Lactamase (Pseudomonas aeruginosa, UniProt Q932Y6); test: BLA reporter interference, concentration series – BLA reporter cells, FRET fluorescence, artefact control for TLR9-MyD88 binding inhibitor project, dose response (AID 588341); format: cell-based;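 note: cell based assay in CHO-K1 cells stably expressing beta-lactamase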
[16] = biological target: Cytochrome P450 3A4 (Homo sapiens, UniProt P08684);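 note: CYP3A4 tested as one member of a cytochrome P450 panel screen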
[17] = THP-1 cell cytotoxicity, dose response, cytotoxicity control for non-replicating M. tuberculosis project (AID 489025); format: functional
[18] = biological target: T3, Microphthalmia-associated transcription factor (Homo sapiens, UniProt O75030); test: reducers of TRPM1 reporter luminescence, concentration series – cell-based, SK-MEL-5, cherry-picked, set 3, MITF inhibitor project, dose response (AID 493073); format: functional;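 note: SK-MEL-5 melanoma cells with luciferase driven by the MITF target TRPM1 promoter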
T3 sequence (O75030 whole entry): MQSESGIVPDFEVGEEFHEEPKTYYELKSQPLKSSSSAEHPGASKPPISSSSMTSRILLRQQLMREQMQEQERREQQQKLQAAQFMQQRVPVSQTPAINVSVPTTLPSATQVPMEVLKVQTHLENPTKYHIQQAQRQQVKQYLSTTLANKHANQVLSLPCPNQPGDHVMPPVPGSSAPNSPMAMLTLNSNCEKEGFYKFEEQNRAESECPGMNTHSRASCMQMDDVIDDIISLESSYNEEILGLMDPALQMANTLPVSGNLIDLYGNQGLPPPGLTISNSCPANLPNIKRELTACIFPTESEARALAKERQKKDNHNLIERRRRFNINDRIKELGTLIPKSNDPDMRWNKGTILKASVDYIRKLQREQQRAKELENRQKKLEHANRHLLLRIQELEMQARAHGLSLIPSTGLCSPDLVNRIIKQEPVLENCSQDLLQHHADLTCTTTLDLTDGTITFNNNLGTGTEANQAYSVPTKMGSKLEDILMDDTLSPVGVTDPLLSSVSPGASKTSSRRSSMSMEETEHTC

[19] = cells; format: functional

Chain of Glucose-6-phosphate 1-dehydrogenase (P11413 whole entry): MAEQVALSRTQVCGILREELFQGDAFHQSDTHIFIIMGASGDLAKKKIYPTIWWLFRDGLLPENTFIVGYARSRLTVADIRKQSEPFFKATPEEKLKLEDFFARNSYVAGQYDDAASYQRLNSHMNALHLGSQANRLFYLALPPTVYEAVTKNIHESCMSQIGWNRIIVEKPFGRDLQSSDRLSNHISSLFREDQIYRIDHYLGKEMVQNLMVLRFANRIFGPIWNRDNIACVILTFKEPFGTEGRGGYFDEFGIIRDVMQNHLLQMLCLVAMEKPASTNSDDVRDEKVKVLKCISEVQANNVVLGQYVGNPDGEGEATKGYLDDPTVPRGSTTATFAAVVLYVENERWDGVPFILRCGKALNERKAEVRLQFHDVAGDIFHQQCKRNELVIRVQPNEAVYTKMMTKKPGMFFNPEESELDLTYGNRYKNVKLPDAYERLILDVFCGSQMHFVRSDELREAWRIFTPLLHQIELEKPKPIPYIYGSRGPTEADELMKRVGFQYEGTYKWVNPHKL
Chain of UDP-galactopyranose mutase (P9WIQ1 whole entry): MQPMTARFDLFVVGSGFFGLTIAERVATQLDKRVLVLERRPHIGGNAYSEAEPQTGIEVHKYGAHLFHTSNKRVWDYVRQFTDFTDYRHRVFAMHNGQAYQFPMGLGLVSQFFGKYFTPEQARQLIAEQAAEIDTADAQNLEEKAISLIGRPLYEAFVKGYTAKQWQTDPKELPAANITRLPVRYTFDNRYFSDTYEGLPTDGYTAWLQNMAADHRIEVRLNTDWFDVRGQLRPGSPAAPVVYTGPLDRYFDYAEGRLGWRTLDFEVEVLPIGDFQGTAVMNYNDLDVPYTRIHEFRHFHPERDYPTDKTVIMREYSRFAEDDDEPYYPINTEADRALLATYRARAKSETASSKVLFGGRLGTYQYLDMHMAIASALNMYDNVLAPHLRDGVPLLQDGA
Chain of Cytochrome P450 3A4 (P08684 whole entry): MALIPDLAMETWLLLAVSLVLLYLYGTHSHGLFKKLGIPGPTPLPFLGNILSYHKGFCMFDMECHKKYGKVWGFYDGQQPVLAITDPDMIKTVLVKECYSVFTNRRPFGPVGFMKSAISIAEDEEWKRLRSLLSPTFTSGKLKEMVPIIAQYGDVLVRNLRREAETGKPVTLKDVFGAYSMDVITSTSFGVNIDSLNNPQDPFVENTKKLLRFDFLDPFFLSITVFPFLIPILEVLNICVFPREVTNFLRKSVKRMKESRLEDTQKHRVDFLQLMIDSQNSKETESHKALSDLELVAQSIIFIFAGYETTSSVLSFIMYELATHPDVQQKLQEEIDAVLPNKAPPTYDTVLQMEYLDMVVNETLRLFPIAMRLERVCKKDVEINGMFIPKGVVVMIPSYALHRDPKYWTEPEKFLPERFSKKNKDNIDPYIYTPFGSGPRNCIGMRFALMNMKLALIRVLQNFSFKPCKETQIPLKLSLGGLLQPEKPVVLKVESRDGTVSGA
Chain of Beta Lactamase (Q932Y6 whole entry): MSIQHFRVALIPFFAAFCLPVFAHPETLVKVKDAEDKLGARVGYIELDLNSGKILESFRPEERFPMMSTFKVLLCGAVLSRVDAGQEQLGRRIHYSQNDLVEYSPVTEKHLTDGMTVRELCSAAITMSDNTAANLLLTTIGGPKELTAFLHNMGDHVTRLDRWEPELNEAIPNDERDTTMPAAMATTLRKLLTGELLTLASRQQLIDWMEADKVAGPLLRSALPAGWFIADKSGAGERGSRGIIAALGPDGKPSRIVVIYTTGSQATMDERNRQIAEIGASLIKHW
Chain of Cytochrome P450 2C19 (P33261 whole entry, the tested form may be a part): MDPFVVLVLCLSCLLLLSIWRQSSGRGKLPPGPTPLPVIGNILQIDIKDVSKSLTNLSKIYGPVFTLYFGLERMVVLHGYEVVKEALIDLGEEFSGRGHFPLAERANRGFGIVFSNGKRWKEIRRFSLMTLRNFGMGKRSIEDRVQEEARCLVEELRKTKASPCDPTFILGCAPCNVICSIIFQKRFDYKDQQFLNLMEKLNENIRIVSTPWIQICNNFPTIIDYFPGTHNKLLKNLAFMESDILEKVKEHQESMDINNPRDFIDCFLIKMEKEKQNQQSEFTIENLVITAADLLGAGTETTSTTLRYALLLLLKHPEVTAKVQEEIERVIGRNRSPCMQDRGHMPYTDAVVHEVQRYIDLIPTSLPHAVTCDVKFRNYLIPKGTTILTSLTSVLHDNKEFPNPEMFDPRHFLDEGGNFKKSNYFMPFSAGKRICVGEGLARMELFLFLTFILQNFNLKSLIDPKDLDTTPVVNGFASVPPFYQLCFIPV
Chain of Genome polyprotein (P29990 2492-3391 limits assumed): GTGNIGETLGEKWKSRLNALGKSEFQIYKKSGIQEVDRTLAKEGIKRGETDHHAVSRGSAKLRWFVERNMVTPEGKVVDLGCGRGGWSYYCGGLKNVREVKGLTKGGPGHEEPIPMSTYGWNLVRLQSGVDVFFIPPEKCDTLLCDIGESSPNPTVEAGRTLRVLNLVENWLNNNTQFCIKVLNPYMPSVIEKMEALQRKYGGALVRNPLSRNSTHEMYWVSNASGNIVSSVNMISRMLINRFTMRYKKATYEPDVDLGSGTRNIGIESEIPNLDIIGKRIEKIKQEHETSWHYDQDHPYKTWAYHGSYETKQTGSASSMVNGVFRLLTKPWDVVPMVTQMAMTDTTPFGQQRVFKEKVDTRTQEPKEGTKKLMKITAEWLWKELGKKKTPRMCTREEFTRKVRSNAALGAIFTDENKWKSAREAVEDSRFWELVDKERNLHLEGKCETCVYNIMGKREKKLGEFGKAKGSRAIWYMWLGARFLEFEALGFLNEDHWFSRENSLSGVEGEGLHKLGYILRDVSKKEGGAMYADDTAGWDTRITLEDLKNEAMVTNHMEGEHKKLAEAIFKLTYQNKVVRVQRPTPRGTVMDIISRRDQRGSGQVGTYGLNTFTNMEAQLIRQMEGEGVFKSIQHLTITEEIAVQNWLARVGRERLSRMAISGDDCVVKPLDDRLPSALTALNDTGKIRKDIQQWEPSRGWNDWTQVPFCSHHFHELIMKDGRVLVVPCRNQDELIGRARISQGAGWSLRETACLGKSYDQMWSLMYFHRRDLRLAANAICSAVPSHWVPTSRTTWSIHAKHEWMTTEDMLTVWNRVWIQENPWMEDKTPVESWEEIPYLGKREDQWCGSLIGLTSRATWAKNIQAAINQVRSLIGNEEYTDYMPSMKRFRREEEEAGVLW

**Q.** What does the source list for Clc1ccccc1-c1nnc(-c2cccs2)o1?
**A.** IC50 [1]: > 67.5 µM (inactive); IC50 [2]: > 67.5 µM (inactive)

**Q.** For O=C(OCCN1C(=O)c2cccc3c(N4CCOCC4)ccc(c23)C1=O)c1cccc(Cl)c1, which AC50 [3] is on record?
**A.** 19.2 µM (active)

**Q.** Which IC50 [1] does the source give for COc1ccccc1NC(=O)CCC(=O)N/N=C(/C)c1ccc(C)cc1 here?
**A.** 46.9 µM (inactive)

**Q.** And the IC50 [2]?
**A.** > 67.5 µM (inactive)

**Q.** Which IC50 [1] does the source give for Cc1cc(C)c(C)c(S(=O)(=O)N2CCN(C)CC2)c1C here?
**A.** > 67.5 µM (inactive)

**Q.** What about the IC50 [2] of the same compound?
**A.** > 67.5 µM (inactive)

**Q.** With CCS(=O)(=O)N1CCN(c2ccc([N+](=O)[O-])c(NC(C)c3ccccc3)c2)CC1 (configuration not stated) as the compound, how does the IC50 [4] read?
**A.** > 80 µM (inactive)

**Q.** Which results are given for O=Nc1c2[nH]c3ccccc3[n+]([O-])c-2c2ccccc12?
**A.** CC50 [5]: 34.2 µM (active); EC50 [6]: 15.7 µM (active); EC50 [7]: 8.47 µM (active); EC50 [8]: 12.5 µM (inconclusive); CC50 [9]: > 40 µM (active); IC50 [10]: > 119 µM (inactive); IC50 [11]: > 119 µM (inactive)

**Q.** For CCN1C(=O)NC(=O)/C(=C\c2cn(CC(=O)N3CCCC3)c3ccccc23)C1=O, which AC50 [3] is on record?
**A.** 107 µM (active)

**Q.** Which IC50 [4] does the source give for Cc1cc(O)c(C(C)C)cc1N=Cc1ccc(N(C)C)cc1 here?
**A.** 23.9 µM (inactive)

**Q.** And the IC50 [12]?
**A.** > 100 µM (active)

**Q.** Which results are given for N#Cc1sc2nc(-c3cccs3)cc(-c3ccc(Cl)cc3)c2c1N?
**A.** AC50 [13]: 3.98 µM (inconclusive); IC50 [14]: > 49.7 µM (inactive); IC50 [15]: 4.74 µM (active); AC50 [16]: 1.41 µM (inconclusive)

**Q.** What does the source list for Cc1cc(C(=O)N/N=C/c2ccc([N+](=O)[O-])o2)c(C)o1?
**A.** IC50 [10]: > 119 µM (inactive); CC50 [17]: 38.9 µM (active); IC50 [11]: > 119 µM (inactive); AC50 [18]: 4.79 µM (active); IC50 [19]: 1.89 µM (active)
